# Results from US20210284952A1, “METHODS OF APPLYING ACETATE TOXICITY AND INDUCING ACETATE UPTAKE IN MICROALGAE CULTURES” (HELIAE DEVELOPMENT LLC, priority 2016, published 2021).
# Counter-ions that a name gives are not always drawn. Like-named read-outs stand apart in the source and are kept apart here.
# What was measured:
# [1] = system: Aurantiochytrium sp. HS399; conditions: pH 5.5 with Acetic Acid, pH 7.0 with HCl
# Method: (§1) An experiment was performed to determine the effectiveness of applying acetate toxicity to microalgae cultures grown in the presence of a non-acetate organic carbon source, in this case glycerol. Aurantiochytrium sp. HS399 was grown in a 100 L open pond. […] Trace and vitamins stocks were prepared according to Ashford, et al. 2000. Lipids 35, 1377-1386. The ponds were inoculated at 1 v/v using exponentially growing cultures. Aeration was maintained at 0.5 vvm using a porous hose. […] Cytosolic (internal cell) acetate concentration was calculated using the previously described model.
# [2] = system: total aerobic bacteria; conditions: for Contamination: pH 5.5 with Acetic Acid, pH 7.0 with HCl
# Method: as §1
# [3] = system: Aurantiochytrium sp. HS399; conditions: nitrogen source
# Method: An experiment was conducted to determine the effect of different nitrogen sources on the internal cell acetate concentration for cultures of Aurantiochytrium sp. HS399 cultures. […] 7H2O (2.5), KCl (0.5), CaCl2 (0.1), KH2PO4 (0.5) vitamins (1 ml/L) and trace metal (5 ml/L). […] The ponds were inoculated at 1 v/v using exponentially growing cultures. Aeration was maintained at 0.5 vvm using a porous hose. Equimolar nitrogen concentrations were added top each pond reactor. […] Culture dry weights (filtration) and residual acetate (HPLC) in the culture medium were analyzed daily. Cytosolic (internal cell) acetate concentration was calculated using the previously described model.
# [4] = system: Aurantiochytrium sp. HS399
# Description: Because the microalgae pH homeostasis will tend to maintain an internal cell pH slightly above neutral (about 7-8) in response to medium acidification, the acetate built up inside the cell may be modeled. The internal acetate concentration of a cell may be calculated from the external culture pH, and the residual acetate concentration in the culture, assuming that the internal pH of the cell and the ionic strength are maintained constant. The pH gradient between the internal cell pH and pH of the culture medium outside the cell may be calculated with the following equation derived from the Hendersen Hassleback equation, from which the internal acetate concentration can be solved: […]
# An experiment was conducted to determine the acetate toxicity of Aurantiochytrium sp. HS399. […] The initial culture medium was supplemented with 30 g/L glycerol and 0.5 or 5 g/L acetate.
# [5] = system: Chlorella sp. HS26
# Method: The experiment of Example 11 was repeated with Chlorella sp. HS26 to evaluate the impact of pH induced acetate toxicity on microalgal lipid and protein accumulation. The two treatments of pH 6.5 and pH 7.5 were set up in outdoor raceway ponds utilizing a pH auxostat with a set point at the designated pH values. The microalgae were cultured for 8 days. Duplicate cultures of each treatment were performed in the experiment. […] The cultures were inoculated at a density of 1 g/L, cultured at a temperature of 25° C., and received natural sunlight.
# [6] = system: Aurantiochytrium sp. HS399; remark: listed apart in the source
# [7] = system: Chlorella sp. HS26; conditions: pH-auxostat feed
# Description: Samples were taken daily to measure dry weight and residual acetate concentration of the culture medium.
# [8] = system: Aerobic bacteria
# [9] = system: Chlorella sp. HS26; remark: listed apart in the source
# Method: An experiment was conducted with Chlorella sp. HS26 to evaluate the impact of pH induced acetate toxicity on microalgal growth during a batch culturing process. The two treatments of pH 6.5 and pH 7.5 were set up in outdoor raceway ponds utilizing a pH auxostat with a set point at the designated pH values and cultured for seven days. Duplicate cultures of each treatment were performed in the experiment. […] The cultures were inoculated at a density of 1 g/L, cultured at a temperature of 25° C., and received natural sunlight.
# [10] = system: Chlorella sp. HS26; conditions: pH 6±0.2 auxostat, dissolved oxygen
# Method: An experiment was performed to determine the effect on respiration in microalgae Chlorella sp. HS26 in response to acetate toxicity conditions (i.e., the increase of the internal cell acetate concentration). […] Data presented corresponds to a continuous 200 L bubble column culture growing in axenic conditions at culture density of 12 g/L, that was incubated at a temperature of 25 f 0.3° C., and aerated at a rate of 30 LPM. The pH probe: E&H, Digital non-glass pH sensor, Tophit CPS471D helped to maintain the pH at 6±0.2 in a pH auxostat mode. The DO was recorder with a Hamilton, EasyFerm Plus Arc 120, P/N: 242091/06 probe. Samples were taken before and after each pulse and analyzed for residual acetate using HPLC.
# [11] = system: Aurantiochytrium sp. HS399; conditions: pH 6±0.2 auxostat, dissolved oxygen
# Method: An experiment was performed to determine the effect on respiration in microalgae Aurantiochytrium sp. HS399 in response to acetate toxicity (i.e., the increase of the internal cell acetate concentration). […] Data presented corresponds to a 4 day old 30 L bubble column bag bioreactor growing in axenic conditions at culture density of 24 g/L, that was incubated at a temperature of 29.5±0.3° C., and aerated at a rate of 10 LPM. The pH probe: E&H, Digital non-glass pH sensor, Tophit CPS471D helped to maintain the pH at 6±0.2 in a pH auxostat mode. The DO was recorder with a Hamilton, EasyFerm Plus Arc 120, P/N: 242091/06 probe. Samples were taken before and after each pulse and analyzed for residual acetate using HPLC. Internal acetate was fluctuations were calculated based on medium residual acetate by integrating the previously presented equation:
smiles,measurement,setting,value
"Cl [HCl, hydrochloric acid]",Cell Dry Weight,[1]; day 0,0.1 g/L
same,Cell Dry Weight,[1]; day 1,1.6 g/L
same,Cell Dry Weight,[1]; day 2,4.3 g/L
same,Cell Dry Weight,[1]; day 3,5.5 g/L
same,Cell Dry Weight,[1]; day 4,6.5 g/L
same,Cell Dry Weight,[1]; day 5,8.1 g/L
same,Contamination,[2]; day 0,1.9E+05 CFU/mL
same,Contamination,[2]; day 1,2.9E+10 CFU/mL
same,Contamination,[2]; day 2,1.3E+16 CFU/mL
same,Contamination,[2]; day 3,2.1E+18 CFU/mL
same,Contamination,[2]; day 4,1.4E+17 CFU/mL
same,Contamination,[2]; day 5,3.4E+21 CFU/mL
"N[C@@H](CCC(=O)O)C(=O)[O-].[Na+] [MSG, monosodium glutamate]",Cell Dry Weight,[3]; day 0,0.2 g/L
same,Cell Dry Weight,[3]; day 1,3.5 g/L
same,Cell Dry Weight,[3]; day 2,6.8 g/L
same,Cell Dry Weight,[3]; day 3,8.1 g/L
same,Cell Dry Weight,[3]; day 4,9.7 g/L
same,Cell Dry Weight,[3]; day 5,10.2 g/L
"CC(=O)O [Acetic Acid, acetic acid]",growth,[4]; 53 g/L internal acetate concentration,tolerated
same,growth,[4]; 153 g/l internal acetate concentration,inhibited
same,growth,[4]; 329 g/L internal acetate concentration,did not proliferate
same,Cell Dry Weight,"[4]; pH 4.5, day 0",0.3 g/L
same,Cell Dry Weight,"[4]; pH 4.5, day 1",1.8 g/L
same,Cell Dry Weight,"[4]; pH 4.5, day 2",4.5 g/L
same,Cell Dry Weight,"[4]; pH 4.5, day 3",6.4 g/L
same,Cell Dry Weight,"[4]; pH 4.5, day 4",7.8 g/L
same,Cell Dry Weight,"[4]; pH 4.5, day 5",8.4 g/L
same,Cell Dry Weight,"[4]; pH 4.5, day 6",9.3 g/L
same,Cell Dry Weight,"[4]; pH 5.0, day 0",0.3 g/L
same,Cell Dry Weight,"[4]; pH 5.0, day 1",2.1 g/L
same,Cell Dry Weight,"[4]; pH 5.0, day 2",5.6 g/L
same,Cell Dry Weight,"[4]; pH 5.0, day 3",8.1 g/L
same,Cell Dry Weight,"[4]; pH 5.0, day 4",9.9 g/L
same,Cell Dry Weight,"[4]; pH 5.0, day 5",10.6 g/L
same,Cell Dry Weight,"[4]; pH 5.0, day 6",11.4 g/L
same,Cell Dry Weight,"[4]; pH 5.5, day 0",0.3 g/L
same,Cell Dry Weight,"[4]; pH 5.5, day 1",1.9 g/L
same,Cell Dry Weight,"[4]; pH 5.5, day 2",5.5 g/L
same,Cell Dry Weight,"[4]; pH 5.5, day 3",8.5 g/L
same,Cell Dry Weight,"[4]; pH 5.5, day 4",10.8 g/L
same,Cell Dry Weight,"[4]; pH 5.5, day 5",11.4 g/L
same,Cell Dry Weight,"[4]; pH 5.5, day 6",12.0 g/L
same,Cell Dry Weight,"[4]; pH 7.0, day 0",0.3 g/L
same,Cell Dry Weight,"[4]; pH 7.0, day 1",2.7 g/L
same,Cell Dry Weight,"[4]; pH 7.0, day 2",7.1 g/L
same,Cell Dry Weight,"[4]; pH 7.0, day 3",9.8 g/L
same,Cell Dry Weight,"[4]; pH 7.0, day 4",12.0 g/L
same,Cell Dry Weight,"[4]; pH 7.0, day 5",12.7 g/L
same,Cell Dry Weight,"[4]; pH 7.0, day 6",12.7 g/L
same,Cell Dry Weight,[1]; day 0,0.0 g/L
same,Cell Dry Weight,[1]; day 1,1.1 g/L
same,Cell Dry Weight,[1]; day 2,3.5 g/L
same,Cell Dry Weight,[1]; day 3,6.2 g/L
same,Cell Dry Weight,[1]; day 4,7.7 g/L
same,Cell Dry Weight,[1]; day 5,9.7 g/L
same,Contamination,[2]; day 0,5.5E+04 CFU/mL
same,Contamination,[2]; day 1,4.8E+05 CFU/mL
same,Contamination,[2]; day 2,5.7E+07 CFU/mL
same,Contamination,[2]; day 3,4.0E+10 CFU/mL
same,Contamination,[2]; day 4,4.6E+12 CFU/mL
same,Contamination,[2]; day 5,8.0E+14 CFU/mL
same,decrease of aerobic bacteria counts versus other treatment,"[2]; throughout the batch, acetate toxicity conditions (pH 5.5)",≥ 3 log
same,Ash,"[5]; pH 6.5, day 0",26 6 % DW
same,Total Carbohydrates,"[5]; pH 6.5, day 0",28.51 % DW
same,Total Lipids,"[5]; pH 6.5, day 0",9.82 % DW
same,Total Protein,"[5]; pH 6.5, day 0",35.07 % DW
same,Ash,"[5]; pH 6.5, day 8",3.26 % DW
same,Total Carbohydrates,"[5]; pH 6.5, day 8",32.13 % DW
same,Total Lipids,"[5]; pH 6.5, day 8",29.34 % DW
same,Total Protein,"[5]; pH 6.5, day 8",35.28 % DW
same,Ash,"[5]; pH 7.5, day 0",26 6 % DW
same,Total Carbohydrates,"[5]; pH 7.5, day 0",28.51 % DW
same,Total Lipids,"[5]; pH 7.5, day 0",9.82 % DW
same,Total Protein,"[5]; pH 7.5, day 0",35.07 % DW
same,Ash,"[5]; pH 7.5, day 8",3.05 % DW
same,Total Carbohydrates,"[5]; pH 7.5, day 8",33.62 % DW
same,Total Lipids,"[5]; pH 7.5, day 8",23.66 % DW
same,Total Protein,"[5]; pH 7.5, day 8",39.69 % DW
same,growth inhibited,[6]; internal acetate concentration 53 g/L,not
same,growth inhibited,[6]; internal acetate concentration 153 g/L,inhibited
same,Cell Dry Weights,"[6]; pH 4.5, day 0",0.4 g/L
same,Cell Dry Weights,"[6]; pH 4.5, day 1",0.5 g/L
same,Cell Dry Weights,"[6]; pH 4.5, day 2",0.3 g/L
same,Cell Dry Weights,"[6]; pH 4.5, day 3",0.2 g/L
same,Cell Dry Weights,"[6]; pH 4.5, day 4",0.3 g/L
same,Cell Dry Weights,"[6]; pH 4.5, day 5",0.0 g/L
same,Cell Dry Weights,"[6]; pH 5.0, day 0",0.4 g/L
same,Cell Dry Weights,"[6]; pH 5.0, day 1",2.3 g/L
same,Cell Dry Weights,"[6]; pH 5.0, day 2",5.0 g/L
same,Cell Dry Weights,"[6]; pH 5.0, day 3",7.1 g/L
same,Cell Dry Weights,"[6]; pH 5.0, day 4",8.9 g/L
same,Cell Dry Weights,"[6]; pH 5.0, day 5",10.0 g/L
same,Cell Dry Weights,"[6]; pH 5.5, day 0",0.4 g/L
same,Cell Dry Weights,"[6]; pH 5.5, day 1",2.7 g/L
same,Cell Dry Weights,"[6]; pH 5.5, day 2",5.6 g/L
same,Cell Dry Weights,"[6]; pH 5.5, day 3",8.0 g/L
same,Cell Dry Weights,"[6]; pH 5.5, day 4",10.2 g/L
same,Cell Dry Weights,"[6]; pH 5.5, day 5",11.6 g/L
same,Cell Dry Weights,"[6]; pH 7.0, day 0",0.4 g/L
same,Cell Dry Weights,"[6]; pH 7.0, day 1",1.5 g/L
same,Cell Dry Weights,"[6]; pH 7.0, day 2",2.9 g/L
same,Cell Dry Weights,"[6]; pH 7.0, day 3",4.1 g/L
same,Cell Dry Weights,"[6]; pH 7.0, day 4",5.4 g/L
same,Cell Dry Weights,"[6]; pH 7.0, day 5",6.3 g/L
same,Cell Dry Weight,[7]; day 0,0.3 g/L
same,Cell Dry Weight,[7]; day 1,0.8 g/L
same,Cell Dry Weight,[7]; day 2,2.7 g/L
same,Cell Dry Weight,[7]; day 3,3.7 g/L
same,Cell Dry Weight,[7]; day 4,4.7 g/L
same,Cell Dry Weight,[7]; day 5,5.3 g/L
same,Cell Dry Weight,[7]; day 6,5.3 g/L
same,Aerobic bacteria count,"[8]; pH set point 5.5, day 0.0",1.1E+04 CFU/mL
same,Aerobic bacteria count,"[8]; pH set point 5.5, day 0.9",2.1E+04 CFU/mL
same,Aerobic bacteria count,"[8]; pH set point 5.5, day 1.9",2.2E+04 CFU/mL
same,average three-day productivity,[9]; pH 6.5 cultures,1.14 g/L/day
same,average three-day productivity,[9]; pH 7.5 cultures,0.76 g/L/day
same,respiration rate in response to acetic acid toxicity,[10],increases its respiration rate
same,respiration rate in response to acetic acid toxicity,[11],increases respiration rate
"N [NH3, ammonia]",Cell Dry Weight,[3]; day 0,0.2 g/L
same,Cell Dry Weight,[3]; day 1,1.9 g/L
same,Cell Dry Weight,[3]; day 2,7.4 g/L
same,Cell Dry Weight,[3]; day 3,7.8 g/L
same,Cell Dry Weight,[3]; day 4,9.9 g/L
same,Cell Dry Weight,[3]; day 5,10.3 g/L
